From patent US20250161243A1, “MEF2 TRANSCRIPTIONAL ACTIVATORS TO TREAT NEUROLOGIC CONDITIONS” (The Scripps Research Institute, priority 2022, published 2025) come the findings set out here.

Counter-ions that a name gives are not always drawn. A value given as a limit tells only on which side of the number the result lay.

The first assay concerns MEF2 transcriptional activity. The assay can be described thus: MEF2 transcriptional activity screen (Luciferase-MEF2 reporter in human neural progenitor cells). The class given is cell-based. The following applies: Homo sapiens, read-out: qAC50 [M].
Regarding `O=C(NOCCO)c1cc(CN2OCCCC2=O)c(F)c(F)c1Nc1ccc(I)cc1F` [CH-4987655], the EC50 is 1.07e-07 M.

Staying with this assay, now noted: Homo sapiens; concentration for half-maximal activity derived from the hill equation model; MEF2 luciferase reporter; read-out: qAC50.
As to `COC(=O)C1=C(C)NC(C)=C(C(=O)OC(C)C)C1c1ccccc1[N+](=O)[O-]` (centres unmarked), the EC50 is 1.53e-06 M.
Turning to `CSCCOC(=O)C1=C(C)NC(C)=C(C(=O)OCCSC)C1c1ccccc1[N+](=O)[O-]`, the EC50 was 2.07e-06 M.
The same measure, in the same setting: next, `CC(=O)C(=Cc1ccccc1)C(C)=O`: 1.57e-05 M; `Cn1cc(-c2ccc(S(=O)(=O)n3ccc(/C=C/C(=O)Nc4ccccc4N)c3)cc2)cn1` [4SC-202]: 1.75e-05 M; `CC(CO)(CO)NCc1ccc2c3c(cccc13)-c1ccccc1-2` [773U82]: 1.89e-05 M.
For `O=c1cc(-c2ccc(O)cc2)oc2cc(O)cc(O)c12` [APIGENIN], the EC50 turned out to be 4.69e-06 M.
Turning to `CCCNC(=O)c1ccc2c(c1)N(C(C)CN1CCCC1)c1ccccc1S2` (centres unmarked) [Apadoline], the EC50 is 1.97e-05 M.
Still for that read-out and setting: as for `CC[C@@H]1C(=O)N(C)c2cnc(Nc3ccc(C(=O)NC4CCN(C)CC4)cc3OC)nc2N1C1CCCC1` [BI-2536], the figure is 2.09e-07 M; as for `COc1ccc(C(=O)/C(Br)=C/C(=O)O)cc1` [Bromebrate sodium], over 1.99e-05 M; as for `N/C(=N\Nc1ccccc1)c1ccccc1` [CBS-1114], over 1.99e-05 M.
Still for that read-out and setting: next, `CN(C)CCCNC(=O)/C(=C/CCCCC(=O)NO)COc1cccc2ccccc12` [CG-200745]: 2.14e-07 M; `O=C(NO)c1cnc(N2C[C@@H]3[C@H](C2)[C@H]3NCc2ccc3cc(F)ccc3n2)nc1` [CHR-3996]: 2.8e-07 M; `O=C(NOCC1CC1)c1ccc(F)c(F)c1Nc1ccc(I)cc1Cl` [CI-1040]: 8.54e-07 M.
In the case of `O=c1oc(CCN2CCN(c3ccccc3)CC2)c(-c2ccc(Cl)cc2)o1` [CLODOXOPONE], the EC50 was over 1.99e-05 M.
Still for that read-out and setting: as for `C#Cc1cccc(Nc2ncnc3cc(OC)c(OCCCCCCC(=O)NO)cc23)c1` [CUDC-101], the figure is 1.05e-06 M; as for `CCCc1cc(O)c2c(c1)OC(C)(C)[C@@H]1CCC(C)=C[C@@H]21` [DELTA-9-TETRA-[…]], 2.29e-06 M; as for `CCCCCCC(C)(C)c1cc(O)c2c(c1)OC(C)(C)[C@H]1CC=C(CO)C[C@H]21` [Dexanabinol], 7.97e-06 M.
On the same count and under the same terms, as for `O=C(NO)c1ccc(C2=Nc3ccccc3Oc3ccccc32)cc1` [EVP-0334], the figure is 3.03e-06 M.
Same read-out and setting: next, `CCN(CC)Cc1ccc2cc(COC(=O)Nc3ccc(C(=O)NO)cc3)ccc2c1` [Givinostat hydrochloride]: 9.72e-07 M; `O=C(NO)c1cnc(N2CCN(S(=O)(=O)c3ccc4ccccc4c3)CC2)nc1` [JNJ-16241199]: 1.59e-07 M; `C/C(=N\NC(=O)c1ccc(C(=O)O)s1)c1csc(-c2ccc(Cl)c(Cl)c2)c1O` [ONO-7746]: 2.57e-06 M.
On to `Cc1sc2c(c1C)C(c1ccc(Cl)cc1)=N[C@@H](CC(=O)Nc1ccc(O)cc1)c1nnc(C)n1-2` [OTX-015], for which the EC50 was found to be 4.51e-07 M.
Take `CCOC(=O)OC(C)OC(=O)CNC(=O)[C@@H](CSSC[C@@H](N)CCSC)Cc1ccccc1` (some centres unmarked) [PL-37]: the EC50 stood at 1.29e-05 M.
As to `Cc1[nH]c2ccccc2c1CCNCc1ccc(/C=C/C(=O)NO)cc1` [Panobinostat lactate], the EC50 is 1.22e-08 M.
Still for that read-out and setting: next, `CC(C)OC(=O)CCC/C=C\C[C@H]1C(=O)C=C[C@@H]1/C=C/[C@@H](O)CCc1ccccc1` [Posaraprost]: over 4.97e-06 M; `Cn1nccc1Nc1nccc(-c2ccn([C@H](CO)c3ccc(Cl)c(F)c3)c(=O)c2)n1` [RG-7842]: 1.23e-05 M; `COc1cc(F)c(F)c(Nc2ccc(I)cc2F)c1NS(=O)(=O)C1(C[C@H](O)CO)CC1` [Refametinib]: 2.73e-06 M.
Same read-out and setting: as for `C=C(C)[C@]12C[C@@H](C)[C@@]34O[C@](Cc5ccccc5)(O[C@@H]1[C@@H]3C=C(COC(=O)Cc1ccc(O)c(OC)c1)C[C@]1(O)C(=O)C(C)=C[C@@H]41)O2` [Resiniferatoxin], the figure is 5.11e-09 M.
As to `CN(C)CCNC(=O)c1cccc2cc3ccccc3nc12` [SN-22995], the EC50 was over 1.99e-05 M.
Same read-out and setting: next, `COc1ccc2nc(-c3cccc(F)c3)cc(O)c2c1OP(=O)(OCc1ccccc1)OCc1ccccc1` [TRX-818]: 1.01e-05 M.
On to `CC(=O)Nc1ccc(C(=O)Nc2ccccc2N)cc1` [Tacedinaline], for which the EC50 was determined as 1.31e-05 M.
With `CC(C)c1ccc(CN2CCN(C(c3ccc(F)cc3)c3ccc(F)cc3)CC2)c(=O)c(NCCO)c1` [U 92032], the EC50 was over 1.99e-05 M.
The same measure, in the same setting: as for `CC(C)(CO)c1cc2cc(NC(=O)C3(c4ccc5c(c4)OC(F)(F)O5)CC3)c(F)cc2n1C[C@@H](O)CO` [VX-661], the figure is over 1.99e-05 M; as for `CCN(CC)CCNc1ccc(CNC)c2sc3ccccc3c(=O)c12` [WIN 33156], over 1.99e-05 M; as for `CN(C)Cc1c(C(=O)NCCOc2ccc(C(=O)NO)cc2)oc2ccccc12` [abexinostat], 2.2e-06 M.
The same measure, in the same setting: next, `O=C(/C=C/c1cccc(S(=O)(=O)Nc2ccccc2)c1)NO` [belinostat]: 6.7e-07 M.
The same measure, in the same setting: next, `COc1cc2c(cc1O)C[C@H]1c3c(cc(O)c(OC)c3-2)CCN1C` [boldine]: 1.33e-05 M; `C[C@H](NC(=O)C(=O)Nc1ccccc1C(C)(C)C)C(=O)N[C@@H](CC(=O)O)C(=O)COc1c(F)c(F)cc(F)c1F` [emricasan]: 8.71e-06 M.
As for `Nc1ccccc1NC(=O)c1ccc(CNC(=O)OCc2cccnc2)cc1` [entinostat], the EC50 came out at 1.49e-07 M.
On the same count and under the same terms, as for `CCCCc1nc2cc(/C=C/C(=O)NO)ccc2n1CCN(CC)CC` [pracinostat], the figure is 2.1e-07 M; as for `O=C(CCCCCCC(=O)Nc1cccnc1)NO` [pyroxamide], over 1.99e-05 M; as for `Cn1cc(CNCC2CCN(c3ncc(C(=O)NO)cn3)CC2)c2ccccc21` [quisinostat], 9.07e-08 M.
Still for that read-out and setting: as for `COc1cccc(-c2ccc(NC(=O)C3=C(C(=O)O)CCC3)c(F)c2)c1` [vidofludimus], the figure is over 1.99e-05 M.

Staying with this assay, now noted: concentration for half-maximal activity derived from the hill equation model; MEF2 luciferase reporter; read-out: qAC50.
In the case of `COc1ccc2[nH]cc(CCN(C(C)C)C(C)C)c2c1` [5-MeO-DIPT], the EC50 is over 1.99e-05 M.
On the same count and under the same terms, as for `CC1(C)C(=O)Nc2cc3[nH]c(-c4ccncc4)nc3cc21` [ADIBENDAN], the figure is over 1.99e-05 M; as for `COC(=O)C1=C(C)NC(C)=C(C(=O)OCC(C)=O)C1c1ccccc1[N+](=O)[O-]` (centres unmarked) [ARANIDIPINE], 3.11e-06 M.
Same read-out and setting: next, `Cc1nn(C)cc1CN1CCC(c2ccc(C(=O)Nc3ccccc3N)cc2)CC1` [AZD-9468]: over 1.99e-05 M; `Clc1ccc2oc(C(c3ccccc3Cl)n3ccnc3)cc2c1` (centres unmarked) [BECLICONAZOLE]: 5.1e-06 M.
The same measure, in the same setting: next, `COC(=O)Nc1nc2cc(C3(O)c4ccccc4C(=O)N3c3cc(Cl)ccc3C)ccc2[nH]1` (centres unmarked) [BMS-908662]: over 1.99e-05 M; `CC(C)Nc1cc(-c2c[nH]c(C(=O)N[C@H](CO)c3cccc(Cl)c3)c2)c(Cl)cn1` [BVD-523]: 9.87e-07 M.
On to `CCCCCN=C(N)Nc1nc(-c2cnc(C)[nH]2)cs1` [CP 66948], for which the EC50 was over 1.99e-05 M.
On the same count and under the same terms, as for `CN(C)CCOc1ccc2[nH]c(C(=O)NCC#Cc3ccc(C(=O)NO)cc3)cc2c1` [CRA-026440], the figure is 1.29e-05 M; as for `CN1Cc2ccccc2[C@@H]2c3cccc4[nH]cc(c34)C[C@H]21` [CY-208-243], 1.96e-05 M; as for `COc1ccc2[nH]c(C(=O)c3ccccc3)cc2c1` [D-64131], 3.74e-06 M.
Still for that read-out and setting: next, `COC(=O)Nc1nc2cc(Sc3ccc(NC(=O)[C@H](C)N)cc3)ccc2[nH]1` [DENIBULIN]: 1.51e-06 M; `CN(C)CCCn1c(=O)c2ccccc2c2ccccc21` [FANTRIDONE]: 5.38e-06 M; `O=C(Nc1nc2cccc(-c3ccc(CN4CCS(=O)(=O)CC4)cc3)n2n1)C1CC1` [Filgotinib]: over 1.99e-05 M.
The same measure, in the same setting: next, `CCN1CCC(Oc2c(C#N)ncc3[nH]c4ncccc4c23)CC1` [GDC-0425]: 1.26e-06 M; `O=C(Cc1ccc(-c2ccc(N3CCOCC3)cc2)cn1)NCc1cccc(F)c1` [KX-02]: 5.8e-07 M.
For `O=C(/C=C/c1ccc(CN(CCO)CCc2c[nH]c3ccccc23)cc1)NO` [LAQ 824], the EC50 came to 5.3e-07 M.
Still for that read-out and setting: as for `C[C@H](Nc1cc(-c2cnn(C)c2)cc(Nc2cnccn2)n1)c1ccc(F)cc1` [NS-018], the figure is 1.12e-05 M; as for `CCCCc1ccc2[nH]c(NC(=O)OC)nc2c1` [PARBENDAZOLE], 1.75e-06 M; as for `CCC(C)SSc1ncc[nH]1` (centres unmarked) [PX-12], 9.95e-07 M.
The same measure, in the same setting: as for `CCOC(=O)/C(=C/c1ncc([N+](=O)[O-])n1C)C(C)=O` [Propenidazole], the figure is 3.11e-06 M; as for `COc1ccc2c(c1)-c1nn(CCCN(C)C)c3ccc([N+](=O)[O-])c(c13)N2` [Pyrazoloacridine], over 1.99e-05 M.
Still for that read-out and setting: next, `CN(C)C(C(=O)Nc1ccc2c(=O)[nH]ccc2c1)c1ccsc1` (centres unmarked) [Verosudil]: 7.54e-06 M; `Cn1cnc2c(F)c(Nc3ccc(Br)cc3F)c(C(=O)NOCCO)cc21` [binimetinib]: over 1.99e-05 M.
For `Cc1c(OCC(F)(F)F)ccnc1C[S@@+]([O-])c1nc2ccccc2[nH]1` [dexlansoprazole], the EC50 was over 1.99e-05 M.
Still for that read-out and setting: next, `CN(C)c1ccc2nc3ccc(N(C)C)cc3[s+]c2c1` [methylthioninium chloride]: 3.77e-06 M.
Same read-out and setting: next, `CC(C)(C)c1[nH]cnc1/C=c1\[nH]c(=O)/c(=C/c2ccccc2)[nH]c1=O` [plinabulin]: 2.67e-06 M; `CN(C)Cc1ccc(S(=O)(=O)n2ccc(/C=C/C(=O)NO)c2)cc1` [resminostat]: 1.23e-06 M; `O=C(CCCCCCNC(=O)c1cnc(N(c2ccccc2)c2ccccc2)nc1)NO` [ricolinostat]: 2.79e-06 M.
Still for that read-out and setting: next, Acriflavine: 2.31e-06 M.
As to CY-190602, the EC50 was found to be 2.41e-06 M.
Still for that read-out and setting: next, Chidamide: 3.67e-08 M; OXAMFLATIN: over 1.99e-05 M.
For the molecule XR 5944, the EC50 turned out to be 4.52e-06 M.
Still for that read-out and setting: next, retapamulin: 1.96e-05 M.

The same assay, now with this note: read-out: qAC50.
As to `CC[C@]1(O)C[C@@H]2CN(CCc3c([nH]c4ccccc34)[C@@](C(=O)OC)(c3cc4c(cc3OC)N(C)[C@H]3[C@@](O)(C(=O)OC)[C@H](OC(C)=O)[C@]5(CC)C=CCN6CC[C@]43[C@@H]65)C2)C1` [Vinblastine sulfate], the EC50 came out at 6.73e-08 M.
